Data as given in patent publication US11000033B2, “Ketone or oxime compound, and herbicide” (NISSAN CHEMICAL CORPORATION, priority 2014, dated 2021).

Key:
Type in all cases: in vivo
[1] = test system: Echinochloa oryzacola Vasing.; assay: Test Example 1: herbicidal activity, application before weed generation in submerged conditions (symbol A); conditions: application herbicide amount 320 g/ha
Method in brief: (§1)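 Pre-emergence, paddy conditions: emulsifiable formulation diluted in water, dosed onto floodwater (4 cm depth) on sowing day. Alluvial soil; weeds sown mixed; rice transplanted at 2.5-leaf stage. Greenhouse 25–30 °C, 3 wk. Score 0–5 (5 = ≥90% kill, 0 = ≤5%).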

[2] = test system: Scirpus juncoides; assay: Test Example 1: herbicidal activity, application before weed generation in submerged conditions (symbol B); conditions: application herbicide amount 320 g/ha
Method in brief: as §1

[3] = test system: Echinochloa crus-galli var. crus-galli; assay: Test Example 3: herbicidal effect by foliage application, Wagner pot (symbol H); conditions: application herbicide amount 320 g/ha
Method in brief: (§2)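 In a shallow-flooded alluvial soil system held at 25–30 °C, plants including rice grew for 14 days and were then sprayed over the foliage with emulsion diluted to a fixed herbicide amount. Visual rating followed at 3 weeks.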

[4] = test system: Cyperus difformis; assay: Test Example 3: herbicidal effect by foliage application, Wagner pot (symbol E); conditions: application herbicide amount 320 g/ha
Method in brief: as §2

[5] = test system: Setaria viridis; assay: Test Example 4: herbicidal effect by soil treatment (symbol G); conditions: application herbicide amount 320 g/ha
Method in brief: (§3)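 Seeds were sown in sterilized diluvial soil, covered with about 1.5 cm of soil, and the soil surface was sprayed with a water-diluted emulsion of the compound at a predetermined rate. Plants grew in a greenhouse at 25° C. to 30° C.; effects were scored visually 3 weeks after application.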

[6] = test system: Alopecurus myosuroides; assay: Test Example 4: herbicidal effect by soil treatment (symbol J); conditions: application herbicide amount 320 g/ha
Method in brief: as §3

[7] = test system: Apera spica-venti; assay: Test Example 4: herbicidal effect by soil treatment (symbol L); conditions: application herbicide amount 320 g/ha
Method in brief: as §3

[8] = test system: wheat; assay: Test Example 4: effect on crop by soil treatment (symbol e); conditions: application herbicide amount 320 g/ha
Method in brief: (§4)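 Plants grew in a 25° C. to 30° C. greenhouse after spot-sowing of seeds, including beet, rapeseed, wheat and rice, into sterilized diluvial soil under roughly 1.5 cm of cover soil.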

[9] = test system: rapeseed; assay: Test Example 4: effect on crop by soil treatment (symbol g); conditions: application herbicide amount 320 g/ha
Method in brief: as §4

[10] = test system: Digitaria ciliaris; assay: Test Example 5: herbicidal effect by foliage application, plastic box (symbol F); conditions: 320 g/ha, 3 weeks after application
Method in brief: (§5)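 Post-emergence spray; diluvial soil (sterilized), ~1.5 cm seed cover; greenhouse 25–30° C; 14-day-old plants; water-diluted emulsion at predetermined dose; visual score at 3 wk post-treatment.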

[11] = test system: Alopecurus myosuroides; assay: Test Example 5: herbicidal effect by foliage application, plastic box (symbol J); conditions: 320 g/ha, 3 weeks after application
Method in brief: as §5

[12] = test system: Apera spica-venti; assay: Test Example 5: herbicidal effect by foliage application, plastic box (symbol L); conditions: 320 g/ha, 3 weeks after application
Method in brief: as §5

[13] = test system: Abutilon theophrasti; assay: Test Example 5: herbicidal effect by foliage application, plastic box (symbol M); conditions: 320 g/ha, 3 weeks after application
Method in brief: as §5

[14] = test system: Amaranthus retroflexus; assay: Test Example 5: herbicidal effect by foliage application, plastic box (symbol N); conditions: 320 g/ha, 3 weeks after application
Method in brief: as §5

[15] = test system: Stellaria media; assay: Test Example 5: herbicidal effect by foliage application, plastic box (symbol P); conditions: 320 g/ha, 3 weeks after application
Method in brief: as §5

[16] = test system: Galium spurium; assay: Test Example 5: herbicidal effect by foliage application, plastic box (symbol Q); conditions: 320 g/ha, 3 weeks after application
Method in brief: as §5

[17] = test system: beet; assay: Test Example 5: effect on crop by foliage application, plastic box (symbol f); conditions: 320 g/ha, 3 weeks after application
Method in brief: (§6)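 Foliage-application test plants come from spot sowing in sterilized diluvial soil under a soil layer of about 1.5 cm, grown at 25° C. to 30° C. in a greenhouse.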

[18] = test system: rapeseed; assay: Test Example 5: effect on crop by foliage application, plastic box (symbol g); conditions: 320 g/ha, 3 weeks after application
Method in brief: as §6

Compound	Herbicidal effect grade, A: Echinochloa oryzacola Vasing. [1]	Herbicidal effect grade, B: Scirpus juncoides [2]	herbicidal effect on H (Echinochloa crus-galli var. crus-galli), grade 0-5 [3]	herbicidal effect on E, grade 0-5 [4]	F: Digitaria ciliaris, herbicidal effect grade [10]	J: Alopecurus myosuroides, herbicidal effect grade [11]	L: Apera spica-venti, herbicidal effect grade [12]	M: Abutilon theophrasti, herbicidal effect grade [13]	N: Amaranthus retroflexus, herbicidal effect grade [14]	P: Stellaria media, herbicidal effect grade [15]	Q: Galium spurium, herbicidal effect grade [16]	f: beet, effect on crop grade [17]	g: rapeseed, effect on crop grade [18]	Herbicidal effect grade, G: Setaria viridis [5]	Herbicidal effect grade, J: Alopecurus myosuroides [6]	Herbicidal effect grade, L: Apera spica-venti [7]	Effect on crop grade, e: wheat [8]	Effect on crop grade, g: rapeseed [9]	F: Digitaria ciliaris, herbicidal effect (criteria of Test Example 1) [10]	J: Alopecurus myosuroides, herbicidal effect (criteria of Test Example 1) [11]	further results
CON=C(C)CC1CC(O)=C(c2c(C)cc(OCc3ccncc3)cc2C)C1=O (mixture of isomers) [6-053]	4 (Herbicidal ratio of 70% or higher and lower than 90%)	2 (Herbicidal ratio of 20% or higher and lower than 40%)	5 (Herbicidal ratio of 90% or more (almost completely withered))	3 (Herbicidal ratio of 40% or higher and lower than 70%)	5 (Herbicidal ratio of 90% or more (almost completely withered))	3 (Herbicidal ratio of 40% or higher and lower than 70%)	4 (Herbicidal ratio of 70% or higher and lower than 90%)	0 (Herbicidal ratio of 5% or lower (almost no effect))	0 (Herbicidal ratio of 5% or lower (almost no effect))	0 (Herbicidal ratio of 5% or lower (almost no effect))	0 (Herbicidal ratio of 5% or lower (almost no effect))	0 (Herbicidal ratio of 5% or lower (almost no effect))	3 (Herbicidal ratio of 40% or higher and lower than 70%)	–	–	–	–	–	–	–	G: Setaria viridis, herbicidal effect grade [5]: 3 (Herbicidal ratio of 40% or higher and lower than 70%); J: Alopecurus myosuroides, herbicidal effect grade [6]: 0 (Herbicidal ratio of 5% or lower (almost no effect)); L: Apera spica-venti, herbicidal effect grade [7]: 0 (Herbicidal ratio of 5% or lower (almost no effect)); e: wheat, effect on crop grade [8]: 0 (Herbicidal ratio of 5% or lower (almost no effect)); g: rapeseed, effect on crop grade [9]: 0 (Herbicidal ratio of 5% or lower (almost no effect))
C=CCON=C(C)CC1CC(O)=C(c2c(C)cc(C)cc2C)C1=O (stereo not drawn) [1-018]	5 (Herbicidal ratio of 90% or more (almost completely withered))	5 (Herbicidal ratio of 90% or more (almost completely withered))	5 (Herbicidal ratio of 90% or more (almost completely withered))	3 (Herbicidal ratio of 40% or higher and lower than 70%)	5 (Herbicidal ratio of 90% or more (almost completely withered))	5 (Herbicidal ratio of 90% or more (almost completely withered))	5 (Herbicidal ratio of 90% or more (almost completely withered))	3 (Herbicidal ratio of 40% or higher and lower than 70%)	0 (Herbicidal ratio of 5% or lower (almost no effect))	4 (Herbicidal ratio of 70% or higher and lower than 90%)	4 (Herbicidal ratio of 70% or higher and lower than 90%)	4 (Herbicidal ratio of 70% or higher and lower than 90%)	4 (Herbicidal ratio of 70% or higher and lower than 90%)	–	–	–	–	–	–	–	G (Setaria viridis) herbicidal effect grade [5]: 3 (Herbicidal ratio of 40% or higher and lower than 70%); J (Alopecurus myosuroides) herbicidal effect grade [6]: 5 (Herbicidal ratio of 90% or more (almost completely withered)); L (Apera spica-venti) herbicidal effect grade [7]: 5 (Herbicidal ratio of 90% or more (almost completely withered)); e (wheat) effect on crop grade [8]: 4 (Herbicidal ratio of 70% or higher and lower than 90%); g (rapeseed) effect on crop grade [9]: 4 (Herbicidal ratio of 70% or higher and lower than 90%)
COc1ccc(-c2cc(C)c(C3=C(O)CC(CC(C)=O)C3=O)c(C)c2)cc1 (stereo not drawn) [7-006]	3 (Herbicidal ratio of 40% or higher and lower than 70%)	0 (Herbicidal ratio of 5% or lower (almost no effect))	5 (Herbicidal ratio of 90% or more (almost completely withered))	0 (Herbicidal ratio of 5% or lower (almost no effect))	–	–	–	–	–	–	–	–	–	0 (Herbicidal ratio of 5% or lower (almost no effect))	0 (Herbicidal ratio of 5% or lower (almost no effect))	0 (Herbicidal ratio of 5% or lower (almost no effect))	0 (Herbicidal ratio of 5% or lower (almost no effect))	0 (Herbicidal ratio of 5% or lower (almost no effect))	5 (Herbicidal ratio of 90% or more (almost completely withered))	3 (Herbicidal ratio of 40% or higher and lower than 70%)	L: Apera spica-venti, herbicidal effect (criteria of Test Example 1) [12]: 4 (Herbicidal ratio of 70% or higher and lower than 90%); M: Abutilon theophrasti, herbicidal effect (criteria of Test Example 1) [13]: 0 (Herbicidal ratio of 5% or lower (almost no effect)); N: Amaranthus retroflexus, herbicidal effect (criteria of Test Example 1) [14]: 0 (Herbicidal ratio of 5% or lower (almost no effect)); P: Stellaria media, herbicidal effect (criteria of Test Example 1) [15]: 0 (Herbicidal ratio of 5% or lower (almost no effect)); Q: Galium spurium, herbicidal effect (criteria of Test Example 1) [16]: 0 (Herbicidal ratio of 5% or lower (almost no effect)); f: beet, effect on crop (criteria of Test Example 1) [17]: 0 (Herbicidal ratio of 5% or lower (almost no effect)); g: rapeseed, effect on crop (criteria of Test Example 1) [18]: 3 (Herbicidal ratio of 40% or higher and lower than 70%)
CC(=O)CC1CC(O)=C(c2c(C)cc(-c3ccccc3)cc2C)C1=O (stereo not drawn) [7-004]	5 (Herbicidal ratio of 90% or more (almost completely withered))	3 (Herbicidal ratio of 40% or higher and lower than 70%)	5 (Herbicidal ratio of 90% or more (almost completely withered))	5 (Herbicidal ratio of 90% or more (almost completely withered))	–	–	–	–	–	–	–	–	–	5 (Herbicidal ratio of 90% or more (almost completely withered))	5 (Herbicidal ratio of 90% or more (almost completely withered))	5 (Herbicidal ratio of 90% or more (almost completely withered))	0 (Herbicidal ratio of 5% or lower (almost no effect))	3 (Herbicidal ratio of 40% or higher and lower than 70%)	5 (Herbicidal ratio of 90% or more (almost completely withered))	5 (Herbicidal ratio of 90% or more (almost completely withered))	L: Apera spica-venti, herbicidal effect (criteria of Test Example 1) [12]: 5 (Herbicidal ratio of 90% or more (almost completely withered)); M: Abutilon theophrasti, herbicidal effect (criteria of Test Example 1) [13]: 0 (Herbicidal ratio of 5% or lower (almost no effect)); N: Amaranthus retroflexus, herbicidal effect (criteria of Test Example 1) [14]: 0 (Herbicidal ratio of 5% or lower (almost no effect)); P: Stellaria media, herbicidal effect (criteria of Test Example 1) [15]: 0 (Herbicidal ratio of 5% or lower (almost no effect)); Q: Galium spurium, herbicidal effect (criteria of Test Example 1) [16]: 0 (Herbicidal ratio of 5% or lower (almost no effect)); f: beet, effect on crop (criteria of Test Example 1) [17]: 0 (Herbicidal ratio of 5% or lower (almost no effect)); g: rapeseed, effect on crop (criteria of Test Example 1) [18]: 3 (Herbicidal ratio of 40% or higher and lower than 70%)
